Our source for the mortality values is patent publication US9688634B2, “Pest control agent” (priority 2012, dated 2017).

The test system of one assay is Haemaphysalis longicornis. The experiment in a line: Test for Examining Effect on Haemaphysalis longicornis (Test Example 3). The following applies: treated plastic vial, young mites, 24 hours after contact, 25° C., dark. Type of assay: in vivo. Here is the method:
Test for Examining Effect on Haemaphysalis longicornis
A solution prepared so that the concentration of each Invention Compound therein was 100 ppm was used to treat a plastic vial. After the liquid chemical was air-dried, young mites were placed in the vial. This vial was allowed to stand under constant dark conditions at 25° C. and a relative humidity of 80-100%. At 24 hours after the contact with the chemical, the number of dead mites was recorded. The mortality (%) was determined using the following calculation formula. […] Mortality (%)=((number of dead ticks)/(number of all ticks))×100
With `C=CCc1cnccc1C#Cc1ccc(C(C)(C)C)cc1` [Compound No. 17, 3-allyl-4-((4-tert-butylphenyl)ethynyl)pyridine], the mortality – broadly, the percentage killed – at 100 ppm was not below 90%.

For another assay, the system named is brown rice planthopper. The experiment in a line: whole plant or invertebrate. The class given is in vivo. The following applies: Oryza sativa, 120 h, immersion treatment of rice seedlings, second- to third-instar nymphs, 5 days after release, 25° C.
For the molecule `COc1cnccc1C#Cc1ccc(C(C)(C)C)cc1` [Compound No. 21, 4-((4-(tert-butyl)phenyl)ethynyl)-3-methoxypyridine], the mortality at 200 ppm was not below 90%.
Still for that read-out and setting: the same measure for `C=CCc1cnccc1C#Cc1ccc(C(C)(C)C)cc1` [Compound No. 17, 3-allyl-4-((4-tert-butylphenyl)ethynyl)pyridine]: not below 90%; for `CC(C)(C)c1ccc(C#Cc2ccncc2Br)cc1` [Compound No. 10, 3-bromo-4-((4-(tert-butyl)phenyl)ethynyl)pyridine]: not below 90%.
As to `CSc1cnccc1C#Cc1ccc(C(C)(C)C)cc1` [Compound No. 26, 4-((4-(tert-butyl)phenyl)ethynyl)-3-(methylthio)pyridine], the mortality at 200 ppm was not below 90%.
In turn, `CC(C)(C)c1ccc(C#Cc2ccncc2N)cc1` [Compound No. 30, 4-((4-(tert-butyl)phenyl)ethynyl)pyridine-3-amine] had a mortality at 200 ppm not below 90%.
With `CCNc1cnccc1C#Cc1ccc(C(C)(C)C)cc1` [Compound No. 112, 4-((4-tert-butylphenyl)ethynyl)-N-ethylpyridine-3-amine], the mortality at 200 ppm is not below 90%.
On to `CCCNc1cnccc1C#Cc1ccc(C(C)(C)C)cc1` [Compound No. 32, 4-((4-(tert-butyl)phenyl)ethynyl)-N-propylpyridine-3-amine], for which the mortality at 200 ppm was not below 90%.
